The values that follow come from patent publication US8119691B2, “Method for treating airway hyper-responsiveness with lipoxin analogs” (National Institutes of Health (NIH), priority 2001, dated 2012).

The structures appear in SMILES notation. Entries after “also recorded” stand apart in the source; their conditions may differ.

The test system of test [1] is OVA sensitized mice. Briefly: Lung histopathology of OVA sensitized and aerosol challenged mice. Conditions: LXa 10 μg; OVA-allergic mice. It counts as in vivo, mouse (BALB/c). The procedure:
FIG. 2. Lung histopathology from LXa treated mice. Mice were sensitized and aerosol challenged with OVA in the absence (left column) or presence (right column) of LXa (10 μg). Representative (n=3) lung tissue sections (magnifications: ×40 (a,b), ×100 (d), ×200 (c,e) and ×400 (f)) were obtained from formalin-fixed, paraffin-embedded lung tissue, prepared and stained with hematoxylin and eosin. Arrows denote eosinophils; br, bronchus; v, vessel.
Sensitization and challenge protocols. Five to seven week old male BALB/c (Charles River Laboratories, Wilmington, Mass.) or female hCD11b-hALX FvB transgenic mice were housed in isolation cages under viral antibody-free conditions. […] On day 18, 24 h after the last aerosol challenge, airway responsiveness to intravenous methacholine (33-1000 μg/kg) was measured, bilateral bronchoalveolar lavage (BAL) (2 aliquots of 1 ml PBS plus 0.6 mM EDTA) was performed and tissues (whole blood, lungs, mediastinal lymph nodes and spleen) were harvested for histological analysis. Lung resistance (RL) was measured using a sealed constant mass plethysmograph. […] For mice studied using a whole body plethysmograph to assess airway responsiveness (Buxco), each mouse was placed into a chamber and box pressure/time waveform was analyzed to yield the indicator of airflow obstruction, enhanced pause (Penh). […] Readings were initiated at 3 min and continued for 12 min. […]

Test [2] relates to OVA sensitized and challenged mice. Nature of the test: Mediator profile (cytokines, lipid mediators) in BAL fluid by ELISA, OVA sensitized and challenged mice. It counts as in vivo, mouse (BALB/c). Conditions: LXa 10 μg i.v. As for the experimental part: FIG. 3. […] Bronchoalveolar lavage fluids were obtained from OVA sensitized and challenged mice. Leukocytes in bronchoalveolar lavage fluid were enumerated and identified after Wright-Giemsa stain (a). Mediator profile of (b) specific cytokines (IL-5, IL-12, IL-13, eotaxin and TNFα), and lipid mediators, including PGE2 (c), LTB4 and cysLT's (d) were determined by ELISA's in materials from control animals and those receiving LXa (10 μg, i.v.). Results are expressed as mean±SEM (n≧6, d≧2). *P<0.05 by Student's t-test compared to control animals.
Sensitization and challenge protocols. Five to seven week old male BALB/c (Charles River Laboratories, Wilmington, Mass.) or female hCD11b-hALX FvB transgenic mice were housed in isolation cages under viral antibody-free conditions. After Harvard Medical Area IRB approval (Protocol #02570), mice were sensitized with intraperitoneal injections of ovalbumin (OVA) (Grade III; Sigma Chemical Co., St. Louis, Mo.) (10 μg) plus 1 mg aluminum hydroxide (ALUM) (J.T. Baker Chemical Co.; Phillipsburg, N.J.) as adjuvant in 0.2 ml PBS on days 0 and 7. On days 14, 15, 16 and 17, the mice received 10 μg/mouse of an analog (ref. 16) of LXA4 (15-epi,16-para-fluoro-phenoxy-LXA4-methyl ester, LXa) or PBS with 1.6 mM CaCl2 and 1.6 mM MgCl2 (0.1 ml) by intravenous injection at least 1 h prior to an aerosol challenge containing either PBS or 6% OVA for 25 min/day. The analog was designed to resist rapid enzymatic inactivation and was based on the structure of the aspirin-triggered 15-epi-LXA4 (ref. 16), which carries its carbon 15 position alcohol in the R configuration or epimeric (R) to native LXA4. On day 18, 24 h after the last aerosol challenge, airway responsiveness to intravenous methacholine (33-1000 μg/kg) was measured, bilateral bronchoalveolar lavage (BAL) (2 aliquots of 1 ml PBS plus 0.6 mM EDTA) was performed and tissues (whole blood, lungs, mediastinal lymph nodes and spleen) were harvested for histological analysis. Lung resistance (RL) was measured using a sealed constant mass plethysmograph. The effective dose of methacholine required to increase RL to 200% of control values was defined as the ED200 and used as an index of airway responsiveness (as in refs. 14, 15). For mice studied using a whole body plethysmograph to assess airway responsiveness (Buxco), each mouse was placed into a chamber and box pressure/time waveform was analyzed to yield the indicator of airflow obstruction, enhanced pause (Penh). PBS or methacholine (100 mg/ml) was given by aerosol through an inlet of the chamber for 4.5 min. Readings were initiated at 3 min and continued for 12 min. Peak and one min average Penh values were determined. Serum total IgE levels were determined by ELISA (Crystal Chem, Chicago, Ill.). In situ hybridization of murine ALX was performed using an anti-sense oligonucleotide probe (534 bp in length) corresponding to nucleic acids +581-+1115 (GenBank Accession No. NM008042) with the assistance of the Dana-Farber/Harvard Cancer Center Pathology Core Facility (under the direction of Dr. Massimo Loda).
Allergen-initiated respiratory inflammation. Measurement of inflammatory mediators was determined in cell-free BAL fluid (2000 g, 10 min) by sensitive and specific ELISA's, in tandem, for interleukin-5 (IL-5), IL-13, eotaxin, tumor necrosis factor (TNFα) (R&D Systems, Minneapolis, Minn.), LTB4, cysteinyl LT, PGE2 (Cayman Chemical Co., Ann Arbor, Mich.), and LXA4 (Neogen, Lexington, Ky.). Cells were resuspended in HBSS, enumerated by hemocytometer, and concentrated onto microscope slides by cytocentrifuge (STATspin) (265 g). Cells were stained with a Wright-Giemsa stain (Sigma Chemical Co.) to determine leukocyte differentials (after counting ≧200 cells).

The subject of test [3] is OVA sensitized FVB mice. Nature of the test: Allergic airway inflammation, BAL leukocyte differentials, comparison with Montelukast (FIG. 7). Format: in vivo, mouse (FVB). Also noted: dose or concentration left out as unconfirmed. To be noted: days 14-17, at least 1 h prior to OVA aerosol; BAL day 18. The text has this: FIG. 7. Depicts regulation of allergic airway inflammation by 15-epi,16-para-fluoro-phenoxy-LXA4-methyl ester in comparison to a commercially available drug (Montelukast) used to treat chronic asthma.
Five to seven week old male FVB (Charles River Laboratories, Wilmington, Mass.) mice were housed in isolation cages under viral antibody-free conditions. After Harvard Medical Area IRB approval (Protocol #02570), mice were sensitized with intraperitoneal injections of ovalbumin (OVA) (Grade III; Sigma Chemical Co., St. Louis, Mo.) (10 mg) plus 1 mg aluminum hydroxide (ALUM) (J. T. Baker Chemical Co.; Phillipsburg, N.J.) as adjuvant in 0.2 ml PBS on days 0 and 7. On days 14, 15, 16 and 17, the mice received an analog of LXA4 (15-epi,16-para-fluoro-phenoxy-LXA4-methyl ester) ([…], 21.7 nmoles), montelukast ([…], 21.7 nmoles) or PBS with 1.6 mM CaCl2 and 1.6 mM MgCl2 (0.1 ml) by intravenous injection at least 1 h prior to an aerosol challenge containing either PBS or 6% OVA for 25 min/day. On day 18, 24 h after the last aerosol challenge, bilateral bronchoalveolar lavage (BAL) (2 aliquots of 1 ml PBS plus 0.6 mM EDTA) was performed. BAL fluids were centrifuged (2000 g, 10 min) and cells were resuspended in HBSS, enumerated by hemocytometer, and concentrated onto microscope slides by cytocentrifuge (STATspin) (265 g). […]

Test [4] concerns murine dorsal air pouches. Conditions: murine dorsal air pouches (refs. 7, 16); cited from earlier work.

For `COC(=O)CCC[C@H](O)[C@H](O)/C=C/C=C/C=C\C=C\[C@H](O)COc1ccc(F)cc1` [LXa, 15-epi,16-para-fluoro-phenoxy-LXA4-methyl ester], in test [1], the “lung tissue leukocyte infiltration (tissue eosinophils and lymphocytes) and vascular injury” value is “significantly reduced leukocyte infiltration”. Besides, in test [2], the “CysLT's in BAL fluid” value was “decreased”, the “IL-5 in BAL fluid” value was “decreased”, the “IL-12 in BAL fluid” value is “not similarly reduced; also recorded: did not significantly alter IL-12 levels” and the “IL-13 in BAL fluid” value is listed as “decreased”. In addition, in test [2], the “PGE2 in BAL fluid” value is “decreased”, the “TNF in BAL fluid” value is “not similarly reduced” and the “eotaxin in BAL fluid” value is “decreased”. The “lymphocyte reduction compared with Montelukast” value in test [3] is listed as “statistically more effective than Montelukast in terms of lymphocyte reduction”. In addition, the “neutrophil accumulation and exudate formation” value in test [4] is “blocks neutrophil accumulation and exudate formation”.
